# Reference: patent US11583507B2, “Direct AMPK activator compounds” (SOCIETE DES PRODUITS NESTLE S.A., priority 2018, dated 2023)
# Tested on: AMPK β1 S108A mutant (phosphorylation of ACC)
# Assay: pACC (HTRF and western blot) in AMPKβ1/β2 double knockout U2-OS Flp-In T-Rex cells stably expressing β1 S108A mutant
# Type: cell-based, human
# Excerpt: AMPKβ1/β2 double knockout U2-OS Flp-In™ T-Rex™ cell lines were generated by Horizon Discovery (Cambridge, UK). Cells were genotyped and analysed by western blotting to confirm that there was a complete knockout of AMPKβ1/β2. We took these AMPKβ1/β2 double knockout cells, and re-introduced the expression of human β1 wild-type (WT) or a β1 Serine 108 to alanine mutation (S108A). This was achieved using the Flp-In™ system (Invitrogen) present in this cell line and stable cells expressing β1 WT or a β1 S108A mutant were generated according to the manufacturers' protocols. Re-expression of the β1 subunit was confirmed by western blot analysis.
# Cells stably expressing β1 WT or a β1 S108A mutant were treated with varying concentrations of Lusianthridin and subjected to the pACC HTRF (Cisbio) assay or western blot analysis to determine phosphorylation of the AMPK substrate, ACC, in cells lysates. Western blots were quantified using the LI-COR odyssey system and shown as the ratio of the antibody signal from pACC divided by total ACC.
compound,measurement,setting,value
"COc1cc(O)c2c(c1)CCc1cc(O)ccc1-2 [Lusianthridin, 7-Methoxy-9,10-dihydrophenanthrene-2,5-diol]",phosphorylation of ACC (western blot),,did not increase phosphorylation of ACC
same,pACC (HTRF assay),"varying concentrations, 30 mins at 37 C",did not increase pACC
